Laboratory results: patent publication US10154958B1 (King Abdulaziz University, priority 2017, dated 2018)
Marks after values point to notes of the source that are not given here.

Assays:
Gardnerella vaginalis = assay: Disc diffusion susceptibility of Gardnerella vaginalis isolates; type: cell-based; conditions: of the 20 isolates of Gardnerella vaginalis; reference disc 5 mcg/disc
Procedure: Twenty isolates of each of Gardnerella vaginalis and Candida albicans were collected from human vaginosis cases. […] The disc diffusion method was used. For Gardnerella vaginalis, the Mueller-Hinton agar supplemented with 5% human serum medium was used.
The discs were incubated aerobically for 48 hrs at 35° C., the diameter of the discs inhibition zones were measured in millimeter, and interpreted by using the chart provided by Hudzicki, American Society for Microbiology, www.asm.org.2013, incorporated herein by reference in its entirety.

Trichomonas vaginalis = assay: In vitro susceptibility of Trichomonas vaginalis isolates (flagellar motility); type: cell-based; conditions: 37° C.; for Mean % cells with motility after 48 hrs of aerobic contact: 500 cells/100 μL + 100 μL composition or metranidazole 25 μg/ml
Procedure: Fresh isolates of Trichomonas vaginalis were collected from 30-38 years old women. The procedure of vaginal smearing and reconstituting medium of the collected specimens were performed according to the procedure in Meingassner and Thumer, Antimicrobial agents and Chemotherapy, Vol 15, pp 254-257,1979, incorporated herein by reference in its entirety. Each isolate was adjusted to a viable count of 5,000 cells/ml, using a hemocytometer. A reconstituting diluent, Diamond's TYM supplemented with 10% horse serum, was used. The isolates were tested with the composition and a commonly used drug, metranidazole.
The number of cells in each well was 500 cells/100 μL of medium. […] Metranidazole was included as a reference at a concentration of 25 μg/ml. Metranidazole (100 μL) was also kept in contact with 500 cells/100 μL of the 20 isolates of Trichomonas vaginalis in the presence of oxygen for 48 hours at 37° C. Control triplicate wells were included in which the Trichomonas vaginalis cells of each of the 20 isolates were put in contact with equal volume of Diamond's TYM supplemented with 10% horse serum. The motility of flagella of the cells was observed after 48 hrs under an inverted-phase contrast microscope. The percentage of cells losing flagellar motility was determined.

Cc1ncc([N+](=O)[O-])n1CCO [Metranidazole, metranidazole]
number of isolates resistant to the reference disc (Gardnerella vaginalis): one
Mean % cells with motility after 48 hrs of aerobic contact (Trichomonas vaginalis; isolate 1): 4.0%
Mean % cells with motility after 48 hrs of aerobic contact (Trichomonas vaginalis; isolate 2): 0.0%
Mean % cells with motility after 48 hrs of aerobic contact (Trichomonas vaginalis; isolate 3): 1.5%
Mean % cells with motility after 48 hrs of aerobic contact (Trichomonas vaginalis; isolate 4): 5.4%
Mean % cells with motility after 48 hrs of aerobic contact (Trichomonas vaginalis; isolate 5): 7.4%
Mean % cells with motility after 48 hrs of aerobic contact (Trichomonas vaginalis; isolate 6): 0.0%
Mean % cells with motility after 48 hrs of aerobic contact (Trichomonas vaginalis; isolate 7): 9.3%
Mean % cells with motility after 48 hrs of aerobic contact (Trichomonas vaginalis; isolate 8): 5.6%
Mean % cells with motility after 48 hrs of aerobic contact (Trichomonas vaginalis; isolate 9): 8.4%
Mean % cells with motility after 48 hrs of aerobic contact (Trichomonas vaginalis; isolate 10): 10.4%
Mean % cells with motility after 48 hrs of aerobic contact (Trichomonas vaginalis; isolate 11): 0.0%
Mean % cells with motility after 48 hrs of aerobic contact (Trichomonas vaginalis; isolate 12): 4.2%
Mean % cells with motility after 48 hrs of aerobic contact (Trichomonas vaginalis; isolate 13): 0.0%
Mean % cells with motility after 48 hrs of aerobic contact (Trichomonas vaginalis; isolate 14): 6.7%
Mean % cells with motility after 48 hrs of aerobic contact (Trichomonas vaginalis; isolate 15): 8.5%
Mean % cells with motility after 48 hrs of aerobic contact (Trichomonas vaginalis; isolate 16): 11.4%
Mean % cells with motility after 48 hrs of aerobic contact (Trichomonas vaginalis; isolate 17): 7.4%
Mean % cells with motility after 48 hrs of aerobic contact (Trichomonas vaginalis; isolate 18): 8.2%
Mean % cells with motility after 48 hrs of aerobic contact (Trichomonas vaginalis; isolate 19): 9.7%
Mean % cells with motility after 48 hrs of aerobic contact (Trichomonas vaginalis; isolate 20): 1.2%
Mean % cells with motility after 48 hrs of aerobic contact, Mean of Means (Trichomonas vaginalis; mean of means of the 20 isolates, composition or metranidazole 25 μg/ml): 5.5^a %
